From patent US9198890B2, “Compositions and methods for treating and preventing coronary heart disease” (priority 2011, dated 2015)
“And” between values parts separate entries of the source, which are not always exact repeats. Equal values may be shown once.

Legend:
LDL-C [1] = experiment: PROSPER study: lipid (LDL-C, HDL-C, triglyceride) response to Pravastatin 40 mg/day, overall and by SLCO1B1/LXRA genotype; format: in vivo, human; conditions: for Adjusted mean percent LDL-cholesterol reduction: mean ± S.D.
Procedure: The effect of SNPs at nucleotide positions 388 (e.g. A>G) and 625 (e.g. T>C) of the SLCO1B1 gene and also at nucleotide position −115 (e.g. G>A) of the LXRA gene on responsiveness to Pravastatin in subjects of various genotypes was assessed by analyzing the correlation of different SNP genotypes with the 6 month and 12 month changes in TC and LDL-C levels in treated subjects, as shown below in Table 5. Neither the presence of the LXRA SNP at nucleotide position −115 nor the SLCO1B1 SNP at nucleotide position 388 were associated with lipid lowering. […] The percentage reductions in LDL-C given are for the 6 month time point (Table 5).
Biochemical and DNA analysis: Total cholesterol (TC), HDL-C, and triglycerides were assessed in subjects after an overnight fast at 6 months, and at 12 months, and LDL-C was calculated by the Friedewald formula, as previously described (Shepherd J et al. (2002) Lancet 360:1623-30). Apolipoprotein B (apoB) was measured only at baseline as described. DNA was isolated from cells from this cohort, and DNA from 5,783 subjects participating in this study was also available. ApoE phenotype was determined on plasma samples by Western blotting, using the method of Havekes et al. in the central laboratory of the Royal Infirmary in Glasgow, Scotland (Havekes L M et al. A rapid micro method for apolipoprotein E phenotyping directly in serum. J Lipid Res (1987) 28:455-63). Subjects were classified according to the presence of apoE2, apoE3, or apoE4 bands on gel blotting (Havekes L M et al. (1987) J Lipid Res 28:455-63).
DNA analysis was conducted by genotyping two single nucleotide polymorphisms (SNPs) of the SLCO1B1 gene—388A>G (rs2306283) and 511T>C (rs4149056)—using standard methods (e.g. Taq Man® SNPs genotyping assays by Applied Biosystems, Foster City, Calif.). The custom assay identification numbers for these analyses were C—1901697—20 and C—30633906—10, respectively. Additionally, DNA analysis was also conducted by genotyping one SNP of the LXRA gene, rs12221497, and the custom assay identification number for this analysis was C—30887860—10. The end points were ascertained after PCR amplification was performed using standard methods (e.g. an Applied Biosystems 7900 HT Sequence Detection System). Genotypes with quality scores below the 95% threshold were repeated and 5% blinded replicates for genotype determinations were performed. In addition, a total of 119 subjects (˜2.2% of the sample size) who had the apoE4/2 phenotype were excluded from these analyses, as well as 246 subjects who had missing apoE phenotype. These subjects were excluded because apoE phenotype or genotype can affect statin-induced LDL-C lowering response, as well as CHD risk, in an allele dependent manner. For example, subjects carrying the apoE4 allele having the greatest response in terms of LDL-C lowering and the highest CHD risk, however, apoE2 and apoE4 phenotype have opposite effects in this regard.
Statistical analysis: Observed genotype frequencies were compared with those expected under Hardy-Weinberg equilibrium using a χ2 test. For data analysis, multivariable analysis of covariance (ANCOVA) was performed to detect associations between the lipoprotein levels at baseline as well as changes in response to the treatment with Pravastatin at 6 months and with SLCO1B1 genotypes adjusted for gender, body mass index, age, alcohol, smoking, diabetes, apoE phenotype, and country of origin, since subjects participating in PROSPER were either from Scotland, Ireland, or the Netherlands. […]

[2] = tested on: elderly individuals at risk of vascular disease; experiment: PROSPER study: incidence of CHD death or nonfatal MI on trial; format: in vivo, human; conditions: for Pravastatin HR, hazards ratio (95% confidence intervals), CHD death or nonfatal MI: Pravastatin group
Procedure: Statistical analysis: Observed genotype frequencies were compared with those expected under Hardy-Weinberg equilibrium using a χ2 test. For data analysis, multivariable analysis of covariance (ANCOVA) was performed to detect associations between the lipoprotein levels at baseline as well as changes in response to the treatment with Pravastatin at 6 months and with SLCO1B1 genotypes adjusted for gender, body mass index, age, alcohol, smoking, diabetes, apoE phenotype, and country of origin, since subjects participating in PROSPER were either from Scotland, Ireland, or the Netherlands. Prevalence at baseline of myocardial infarction (MI) and all types of vascular disease (history of angina, claudication, MI, stroke, transient ischemic attack, peripheral arterial disease surgery, or amputation for vascular disease more than 6 months before study entry) at baseline, as well as incidence of primary endpoints (CHD death or nonfatal MI or fatal non-fatal stroke), and all cardiovascular events (primary endpoints and coronary artery bypass grafting, coronary angioplasty, and peripheral artery surgery or angioplasty), were compared between carriers of different SLCO1B1 SNP genotypes using multivariable logistic regression analysis in all subjects and stratified by gender and treatment. All analyses were fully adjusted for age, gender, country, history of vascular disease, body mass index, history of diabetes, as well as history of hypertension, alcohol use, current smoking, and apoE phenotype. To evaluate the modifying effects of genotypes and gender on the response to treatment, gene-treatment and gene-gender interaction terms were added to the regression models. Lewontin's D value was calculated to assess the linkage disequilibrium (LD) between the two SNPs of interest (Lewontin R C. The interaction of selection and linkage. II. Optimum models. Genetics 1964; 50:757-82). There was no interaction between these SNPs and also no interaction between these SNPs and apoE genotype. All analyses were performed using SAS/STAT and SAS/Genetics [including proc haplotype procedure] (SAS Version 9.1, SAS Institute Inc., Cary, N.C.). A two-sided p<0.05 was considered statistically significant.

[3] = tested on: elderly individuals at risk of vascular disease; experiment: PROSPER study: adverse events (myalgia, rhabdomyolysis, creatine kinase)
From the text: In this randomized study with 5,804 subjects, 2,913 subjects received placebo and 2,891 received Pravastatin (three of whom refused medication). […] This adverse event rate was very similar to the placebo group where 116 subjects discontinued medication because of non-fatal adverse events. […] At the 3 month visit there no subjects that had creatine kinase levels >10 the upper limits of normal.
Study Subjects: The results and the methodology used in the PROspective Study of Pravastatin in the Elderly at Risk (PROSPER) study have been previously described (see e.g., Shepherd J et al. PROspective Study of Pravastatin in the Elderly at Risk. Pravastatin in elderly individuals at risk of vascular disease (PROSPER): a randomized controlled trial. Lancet (2002) 360:1623-30 and Shepherd J et al. The design of a prospective study of Pravastatin in the Elderly at Risk (PROSPER). PROSPER Study Group. PROspective Study of Pravastatin in the Elderly at Risk. Am J Cardiol (1999) 84:1192-97).
In the present study 2,804 men and 3,000 women between the ages of 70 and 82 with pre-existing vascular disease (n=2,404) or at least one of three major vascular risk factors (diabetes n=575, smoking n=1,433, or hypertension n=3,360) were randomized to Pravastatin 40 mg/day (n=2,891) or placebo (n=2,913) and followed up on for 3.2 years, on average. […] This effect translates into an estimated 30% risk reduction in CHD events over 5 years, which is consistent with other statin trials. […] For subjects that were judged to have good compliance (i.e. taking medication more than 75% of the time), these alterations on the lipid levels were even greater: −34% […], +5% (increased HDL-C), and −13% (decreased triglycerides), respectively. […] Lipid levels were similar at onset of the study in subjects randomized to Pravastatin or placebo.

LDL-C [4] = experiment: PROSPER study: lipid (LDL-C, HDL-C, triglyceride) response to Pravastatin 40 mg/day, overall and by SLCO1B1/LXRA genotype; format: in vivo, human; conditions: mean ± S.D.
[5] = single oral dose of 40 mg, 32 subjects; cited from earlier work
[6] = 16 healthy volunteers, multiple-dose; cited from earlier work
[7] = subjects with good compliance (medication more than 75% of the time)

CC[C@H](C)C(=O)O[C@H]1C[C@H](O)C=C2C=C[C@H](C)[C@H](CC[C@@H](O)C[C@@H](O)CC(=O)O)[C@H]21 [Pravastatin, pravastatin]
Adjusted mean percent LDL-cholesterol reduction (LDL-C [1]; 6 months, LXRA 115 G > A genotype AA): −37.4 ± 10.9%
Adjusted mean percent LDL-cholesterol reduction (LDL-C [1]; 6 months, LXRA 115 G > A genotype GA): −36.4 ± 10.7%
Adjusted mean percent LDL-cholesterol reduction (LDL-C [1]; 6 months, LXRA 115 G > A genotype GG): −36.6 ± 10.7%
Adjusted mean percent LDL-cholesterol reduction (LDL-C [1]; 6 months, SLCO1B1 388 A > G genotype AA): −36.7 ± 10.5%
Adjusted mean percent LDL-cholesterol reduction (LDL-C [1]; 6 months, SLCO1B1 388 A > G genotype AG): −36.6 ± 10.7%
Adjusted mean percent LDL-cholesterol reduction (LDL-C [1]; 6 months, SLCO1B1 388 A > G genotype GG): −36.2 ± 11.6%
Adjusted mean percent LDL-cholesterol reduction (LDL-C [1]; 12 months, LXRA 115 G > A genotype AA): −35.3 ± 11.2%
Adjusted mean percent LDL-cholesterol reduction (LDL-C [1]; 12 months, LXRA 115 G > A genotype GA): −35.1 ± 11.6%
Adjusted mean percent LDL-cholesterol reduction (LDL-C [1]; 12 months, LXRA 115 G > A genotype GG): −35.5 ± 12.1%
Adjusted mean percent LDL-cholesterol reduction (LDL-C [1]; 12 months, SLCO1B1 388 A > G genotype AA): −35.9 ± 11.2%
Adjusted mean percent LDL-cholesterol reduction (LDL-C [1]; 12 months, SLCO1B1 388 A > G genotype AG): −35.3 ± 12.3%
Adjusted mean percent LDL-cholesterol reduction (LDL-C [1]; 12 months, SLCO1B1 388 A > G genotype GG): −34.3 ± 12.8%
Adjusted mean percent LDL-cholesterol reduction (LDL-C [1]; 12 months, SLCO1B1 625 T > C genotype CC): −31.8 ± 11.7%
Adjusted mean percent LDL-cholesterol reduction (LDL-C [1]; 12 months, SLCO1B1 625 T > C genotype TC): −34.6 ± 12.5%
HDL-C increase versus baseline (LDL-C [1]; subjects placed on Pravastatin): 5%
triglycerides decrease versus baseline (LDL-C [1]; subjects placed on Pravastatin): 12%
alteration printed as risk reduction for CHD (LDL-C [1]; [7]): −34%
decreased triglycerides (LDL-C [1]; [7]): −13%
increased HDL-C (LDL-C [1]; [7]): +5%
Pravastatin HR, hazards ratio (95% confidence intervals), CHD death or nonfatal MI ([2]; 388 A > G genotype AA (reference genotype)): 1
Pravastatin HR, hazards ratio (95% confidence intervals), CHD death or nonfatal MI ([2]; 388 A > G genotype AG versus AA): 1.13
Pravastatin HR, hazards ratio (95% confidence intervals), CHD death or nonfatal MI ([2]; 388 A > G genotype GG versus AA): 1.12
Pravastatin HR, hazards ratio (95% confidence intervals), CHD death or nonfatal MI ([2]; 625 T > C genotype CC versus TT): 0.64
Pravastatin HR, hazards ratio (95% confidence intervals), CHD death or nonfatal MI ([2]; 625 T > C genotype TC versus TT): 0.99
Pravastatin HR, hazards ratio (95% confidence intervals), CHD death or nonfatal MI ([2]; 625 T > C genotype TT (reference genotype)): 1
estimated risk reduction in CHD events ([2]; over 5 years, translated from the 3.2 year effect): 30%
reported cases of myalgia ([3]; both, human, in vivo, 3.2 years): 36 cases
association of the SLCO1B1 rs4149056 SNP with myalgia ([3]; in vivo): no association
reported cases of rhabdomyolysis ([3]; in vivo): no reported cases
subjects who discontinued medication because of non-fatal adverse events ([3]; of 2,888 subjects started on Pravastatin, 116 in placebo group): 107 subjects
Adjusted mean percent LDL-cholesterol reduction (LDL-C [4]; 6 months, SLCO1B1 625 T > C genotype CC, Pravastatin 40 mg/day): −31.8% and −31.8 ± 12.8%
Adjusted mean percent LDL-cholesterol reduction (LDL-C [4]; 6 months, SLCO1B1 625 T > C genotype TC, Pravastatin 40 mg/day): −36.0% and −36.0 ± 10.4%
Adjusted mean percent LDL-cholesterol reduction (LDL-C [4]; 6 months, SLCO1B1 625 T > C genotype TT, Pravastatin 40 mg/day): −37.0% and −37.0 ± 10.8%
Adjusted mean percent LDL-cholesterol reduction (LDL-C [4]; 12 months, SLCO1B1 625 T > C genotype TT): −35.9 ± 11.8%
areas under the curve of pravastatin blood levels, CC versus wildtype TT SLCO1B1 genotype [5]: significantly greater
plasma pravastatin levels with SLCO1B1 haplotype as compared to other haplotypes [6]: doubling
